Values joined by “and” are separate entries in the source; they are usually repeats but may differ in a detail not shown here. Identical values can stand only once.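 Briefly, cells in 96-well plates were exposed to five compound concentrations for 48 h, and endpoints were estimated by linear interpolation. Here, GI50 denotes the concentration required for 50% inhibition of growth. The concentration for full growth arrest is given as TGI.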
Assays:
Assay in all cases: DTP human tumour cell line panel, 48 h
[1] = system: A498 renal
[2] = system: CCRF-CEM leukemia
[3] = system: HCC-2998 colon
[4] = system: HT29 colon
[5] = system: MALME-3M melanoma
[6] = system: NCI-H23 lung
[7] = system: NCI/ADR-RES ovarian
[8] = system: PC-3 prostate
[9] = system: RXF 393 renal
[10] = system: SF-268 CNS

Compound	TGI [1]	TGI [2]	TGI [3]	TGI [4]	TGI [5]	TGI [6]	TGI [7]	TGI [8]	TGI [9]	TGI [10]	GI50 [2]	GI50 [3]	GI50 [4]	GI50 [5]	GI50 [9]	GI50 [1]	GI50 [8]	GI50 [7]	GI50 [10]
CN1CCN(C2=CC(=O)c3c(O)ccc(O)c3C2=O)CC1	2.87 µM	3.03 µM	3.23 µM	0.946 µM	0.592 µM	2.8 µM	> 10 µM	> 10 µM	2.93 µM	2.93 µM									
Cc1ccc(N=C2C(=Nc3ccc(C)cc3)N(c3ccc(C)cc3)C(=S)N2C(=O)c2ccccc2)cc1			> 100 µM	> 100 µM	> 100 µM	> 100 µM	> 100 µM	> 100 µM	> 100 µM	> 100 µM									
CCN1CCC(O)(/C=C/c2ccc(OC)cc2)C(C(=O)/C=C/c2ccc(OC)cc2)C1 (stereo not given)	27.2 µM	5.76 µM	29 µM	25.4 µM	32.8 µM	27.9 µM	21.9 µM	23.5 µM	11.9 µM	28.8 µM									
C[C@H]1COC2=C1C(=O)C(=O)c1c2ccc2c1CCCC2(C)C	52.6 µM	> 39.5 µM	19.6 µM	7.39 µM	2.07 µM	3.57 µM	24 µM	> 64.5 µM	55.6 µM	44.4 µM									
[N-]=[N+]=Nc1c([N+](=O)[O-])c(=O)n2c3c(cccc13)CCC2	50.4 µM	4.98 µM	34.4 µM	36.1 µM	4.27 µM	43.6 µM	45.5 µM	30.7 µM		21.3 µM									
COc1cc(CS(=O)c2ccc(O)cc2)cc(OC)c1OC (stereo not given)	> 100 µM	> 100 µM		> 100 µM	> 100 µM	> 100 µM	> 100 µM	> 100 µM	> 100 µM	> 100 µM									
CC(=O)Nc1ccccc1NC1CC(C)N(c2ccccc2)N1C(C)=O (stereo not given)		> 10 µM	> 10 µM	> 10 µM	> 10 µM	> 10 µM		> 10 µM	> 10 µM	> 10 µM									
CSc1scc2c1/C(=N/NC(N)=O)CCC2	> 100 µM	> 100 µM	> 100 µM	> 100 µM		> 100 µM	73.4 µM	> 100 µM		> 100 µM									
COc1ccc2c(c1)OC[C@@H]1c3cc(O)c(OCc4ccccc4)cc3O[C@H]21	> 100 µM	> 100 µM	> 100 µM	> 100 µM	85.7 µM	67.9 µM			93.2 µM	> 100 µM									
C[N+](C)(CCNC(=O)c1cccc2cc3ccccc3nc12)Cc1ccc([N+](=O)[O-])s1	> 25 µM	> 25 µM		> 25 µM	> 25 µM	> 25 µM	> 25 µM	> 25 µM	> 25 µM	> 25 µM									
CC(=O)/C(=C/N1CCNC1=S)C(=O)Nc1ccccc1C	> 100 µM	> 100 µM	> 100 µM	> 100 µM		> 100 µM	> 100 µM	> 100 µM	> 100 µM	> 100 µM									
COc1ccc(C[C@H](N)C(=O)N2C[C@@H](CO)C[C@@H](n3ccc(=O)[nH]c3=O)C2)cc1		> 100 µM	> 100 µM	> 100 µM	> 100 µM	> 100 µM			> 100 µM	> 100 µM									
COC(=O)C1=C(C(=O)OC)SC2(S1)C(C(=O)OC)=C(C(=O)OC)Sc1c2ssc1=NC(C)(C)C	3.48 µM			2.57 µM	5.09 µM	6.66 µM	7.73 µM	2.75 µM	1.96 µM	4.72 µM									
O=C(N/N=C/c1cc(Br)cc(Br)c1[O-])c1ccccc1O.O=C(N/N=C/c1cc(Br)cc(Br)c1[O-])c1ccccc1O.[Ni+2]		> 100 µM	1.39 µM	2.24 µM	1.98 µM	2.65 µM			2.62 µM	6.94 µM	0.537 µM								
COc1ccc(N2C(=O)C3c4[nH]c5ccccc5c4C4CCCCC4C3C2=O)cc1 (stereo not given)	54.4 µM	29.1 µM	40.7 µM	> 100 µM	25.8 µM	> 100 µM			55.6 µM	26.4 µM									
Cc1cc(S(=O)(=O)/N=C(/NN)NNc2cccc(C(F)(F)F)n2)c(S)cc1Cl	50.1 µM	63.6 µM	31.2 µM	43.1 µM	42.1 µM		46.2 µM	50.7 µM	57.2 µM	57.4 µM									
Cc1nc2ccccc2c(/C=C/c2ccc(Cl)cc2)c1C(=O)/C=C/c1ccccc1		> 100 µM	3.3 µM	> 100 µM	3.01 µM				2.98 µM		1.32 µM	1.66 µM	1.58 µM	1.63 µM	1.6 µM				
C=C(C)CNC(=S)N(N)c1ccc2ccccc2c1		> 100 µM	> 100 µM	> 100 µM	> 100 µM	> 100 µM	> 100 µM	> 100 µM	> 100 µM	> 100 µM									
Cc1ccc([N+](=O)[O-])c2c(NCC(O)CO)ccnc12 (stereo not given)		> 100 µM	> 100 µM	> 100 µM	44.6 µM	> 100 µM	> 100 µM	> 100 µM	> 100 µM	> 100 µM									
CCOC(=O)C(NC(=O)OC(C)(C)C)C(=O)OCC		> 100 µM	> 100 µM	> 100 µM		> 100 µM	> 100 µM	> 100 µM	> 100 µM	> 100 µM									
Cc1c(C(=O)O)n2cnnc2c2ccccc12	> 100 µM	> 100 µM	> 100 µM	> 100 µM		> 100 µM	> 100 µM	> 100 µM	> 100 µM	> 100 µM									
Cc1ccc(CCC(=O)C(=O)O)s1	> 100 µM	> 100 µM	> 100 µM	> 100 µM	> 100 µM	> 100 µM				> 100 µM									
NCCCNCCCCN1CC1	2.14 µM		> 36.2 µM	> 37.5 µM		> 28 µM	> 20.7 µM	> 34.9 µM	7.83 µM	> 29.9 µM									
Fc1cc(-c2cc(-c3ccc4c(c3)OCO4)n[nH]2)c(Cl)cc1Cl		> 89 µM	15.6 µM	15.9 µM	24.8 µM	7.73 µM	12.4 µM	11.1 µM	4.45 µM	9.7 µM									

Compound	TGI [1]	TGI [2]	TGI [3]	TGI [4]	TGI [5]	TGI [6]	TGI [7]	TGI [8]	TGI [9]	TGI [10]	GI50 [2]	GI50 [3]	GI50 [4]	GI50 [5]	GI50 [9]	GI50 [1]	GI50 [8]	GI50 [7]	GI50 [10]
COc1ccc2nc3cc(Cl)ccc3c(NCCNc3c4ccc(Cl)cc4nc4ccc(OC)cc34)c2c1	3.36 µM	6.68 µM	3.28 µM		3.76 µM			3.45 µM	2.92 µM		2.19 µM	1.79 µM		2.07 µM	1.55 µM	1.8 µM	1.83 µM		
NC(N)=NCCCC(NC(=O)OCCCCn1ccc(N)nc1=O)C(=O)O (stereo not given)	> 100 µM	> 100 µM	> 100 µM	> 100 µM		> 100 µM	> 100 µM	> 100 µM	> 100 µM	> 100 µM									
CC1=NN(c2nc(N)nc(CF)n2)C(C)(C)C1	> 100 µM	> 100 µM	> 100 µM	> 100 µM		> 100 µM	> 100 µM	> 100 µM	> 100 µM	> 100 µM									
CCC(NC1=NCCO1)c1cccs1 (stereo not given)	42.5 µM	65.4 µM	28.9 µM	63.9 µM	25.7 µM	31.6 µM	> 100 µM	33.9 µM	33.2 µM										
NC(CSSCC(N)Cc1ccccc1)Cc1ccccc1 (stereo not given)	> 100 µM	> 100 µM	> 100 µM	> 100 µM	> 100 µM	> 100 µM				> 100 µM									
CC(=O)c1c2n(n(-c3ccccc3)c1=O)C(=O)c1nccnc1-2	> 100 µM		> 100 µM	> 100 µM	> 100 µM	> 100 µM	> 100 µM	> 100 µM	> 100 µM	> 100 µM									
C=C1CN(C2=NCCO2)C1		> 100 µM	> 100 µM	> 100 µM	> 100 µM	> 100 µM	> 100 µM	> 100 µM	> 100 µM	> 100 µM									
O=C(CSc1nc2ccccc2c(=O)n1-c1ccccc1)N=Nc1c(O)[nH]c2ccc(F)cc12		5.04 µM	4.75 µM	6.96 µM		9.21 µM	5.48 µM	3.77 µM	4.09 µM	4.93 µM									
COC(=O)C(NC(=O)c1ccccc1)C(c1ccc(Cl)cc1)P(=O)(OC)OC (stereo not given)	> 100 µM	> 100 µM	> 100 µM	> 100 µM		> 100 µM			> 100 µM	> 100 µM									
S=c1[nH]c2ccc(I)cc2c(=S)n1Cc1ccccc1	55.4 µM	6.06 µM		38.9 µM	33.6 µM	9.61 µM	25.5 µM	15.5 µM	9.21 µM	25.3 µM									
CCC[C@@H]1C(=O)N=C(N)N1C(=O)OCc1ccccc1	> 100 µM		> 100 µM	> 100 µM	> 100 µM	> 100 µM	> 100 µM	> 100 µM	> 100 µM	> 100 µM									
Cc1ccc(-n2cc([Si](C)(C)C)nn2)s1	> 100 µM		> 100 µM	> 100 µM	> 100 µM	> 100 µM	> 100 µM	> 100 µM		> 100 µM									
C=CC(C)(C)C(=C)C(=O)Nc1ccccc1I	> 100 µM	> 100 µM	> 100 µM	> 100 µM		> 100 µM	> 100 µM	> 100 µM	> 100 µM	> 100 µM									
O=c1[nH]c(=S)c2cc3c(=S)[nH]c(=O)n(CCO)c3nc2n1CCO	> 100 µM	> 100 µM	> 100 µM		> 100 µM	> 100 µM	> 100 µM	> 100 µM	> 100 µM	> 100 µM									
COC1OC2=CCC3C(=O)NC(=O)C3C2[C@H](OCc2ccccc2)C1OCc1ccccc1 (stereo not given in full)			11.4 µM	3.36 µM	3.26 µM	4.7 µM			2.99 µM										
C/C=C(/C)C(=O)O[C@H]1[C@H](O)CC(c2ccc3c(c2O)C(O)=C2C(=O)C4(OC)C(O)=C(C(N)=O)C(=O)[C@H](CC(=O)c5ccccc5O)C4CC2[C@@]3(C)OC)O[C@@H]1C (stereo not given in full)	2.21 µM and 1.49 µM		1.25 µM and 1.05 µM	1.19 µM and 0.255 µM	2.87 µM	0.228 µM and 0.067 µM		0.187 µM		2.91 µM						0.0198 µM			
CCOC(=O)N1CCC(=C2c3ccc(Cl)cc3CCc3cccnc32)CC1	8.12 µM	> 100 µM	23.6 µM	16.9 µM	24.7 µM	35.6 µM	23.6 µM	25.7 µM	22.7 µM										
COc1cc(Br)c(CC2C3=C(CCN2C(=O)C2CCC2)CC(=O)CC3)cc1O (stereo not given)		87.6 µM	92.9 µM	71.6 µM	92.7 µM	51.9 µM	> 100 µM	> 100 µM		> 100 µM									
CCCC(=O)[O-].N.N.N.N.N.[Co+3].[O-][Cl+3]([O-])([O-])[O-]	> 100 µM	> 100 µM	> 100 µM	> 100 µM	> 100 µM	> 100 µM				> 100 µM									
C=CCC(C(=O)Nc1cccc2[nH]cnc12)C(=O)OCC (stereo not given)	> 100 µM		> 100 µM	> 100 µM			> 100 µM	> 100 µM		> 100 µM									
CN(C)/N=N/c1nc[nH]c1C(N)=O	> 875 µM	90.1 µM and > 731 µM	99.5 µM and > 654 µM	> 1000 µM	> 1000 µM			> 1000 µM	99.4 µM and > 165 µM	> 791 µM		58.4 µM	607 µM	243 µM	93.3 µM	72.4 µM and > 133 µM	77.2 µM	232 µM	54.8 µM
COc1ccc(Sc2ccccc2N)cc1	> 100 µM	83.8 µM	> 100 µM	50.5 µM	> 100 µM	> 100 µM			75.6 µM	> 100 µM									
Oc1ccc(Cl)cc1C1=NC(/N=C\c2ccccc2)=NC(c2ccccc2)C1 (stereo not given)	> 100 µM	> 100 µM		> 100 µM		> 100 µM	> 100 µM	> 100 µM	> 100 µM	> 100 µM									

Source: PubChem BioAssay (NCI)
